Test results from article PMC10065799, “High-throughput profiling of sequence recognition by tyrosine kinases and SH2 domains using bacterial peptide display” (eLife, 2023).

Legend:
[1] = system: Hck kinase domain; test: pTyr-Var library bacterial peptide display kinase screen (enrichment scores); assay type: biochemical, human
[2] = biological target: c-Src SH2 domain (Homo sapiens, UniProt P12931); test: pTyr-Var library SH2 domain screen with SH2-dynabeads (enrichment scores); conditions: sheet c-Src
[3] = system: SHP2 C-SH2 domain; test: as above
[4] = biological target: T1, c-Abl kinase domain (Mus musculus, UniProt P00520); test: pTyr-Var library bacterial peptide display kinase screen (enrichment scores); assay type: biochemical;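 as to c-Abl hit?: Hit requires p below 0.05 and at least twofold variant vs reference change plus filters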
T1 sequence (P00520 242-493 limits assumed): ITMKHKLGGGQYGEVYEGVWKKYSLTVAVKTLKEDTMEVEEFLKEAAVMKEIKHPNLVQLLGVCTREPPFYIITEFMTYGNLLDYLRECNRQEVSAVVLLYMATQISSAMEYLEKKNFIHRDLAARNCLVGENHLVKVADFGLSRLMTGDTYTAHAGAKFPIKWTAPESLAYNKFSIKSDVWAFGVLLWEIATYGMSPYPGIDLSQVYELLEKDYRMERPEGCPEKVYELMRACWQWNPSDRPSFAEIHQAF

[5] = biological target: c-Src kinase domain (Homo sapiens, UniProt P12931); test: as above; assay type: biochemical;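 as to c-Src hit?: Hit requires p below 0.05 and at least twofold variant vs reference change plus filters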
[6] = system: FGFR3 kinase domain; test: as above; assay type: biochemical, human
[7] = system: Grb2 SH2 domain; test: pTyr-Var library SH2 domain screen with SH2-dynabeads (enrichment scores)
[8] = system: AncSZ kinase domain; test: pTyr-Var library bacterial peptide display kinase screen (enrichment scores); assay type: biochemical;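 as to AncSZ hit?: Hit requires p below 0.05 and at least twofold variant vs reference change plus filters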
[9] = system: MERTK kinase domain; test: as above; assay type: biochemical, human
[10] = system: Fer kinase domain; test: as above; assay type: biochemical, mouse;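 as to Fer hit?: Hit requires p below 0.05 and at least twofold variant vs reference change plus filters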
[11] = system: EPHB1 kinase domain; test: as above; assay type: biochemical, human
[12] = system: FGFR1 kinase domain; test: as above; assay type: biochemical, human
[13] = system: EPHB2 kinase domain; test: as above; assay type: biochemical, human
[14] = system: Jak2; test: as above; assay type: biochemical, human
[15] = system: Fyn kinase domain; test: as above; assay type: biochemical, human
[16] = system: Fes; test: as above; assay type: biochemical
[17] = pTyr-Var library, enrichment score, replicate 1
[18] = pTyr-Var library, enrichment score, replicate 3
[19] = pTyr-Var library, enrichment score, replicate 4
[20] = variant versus reference peptide
[21] = variant versus reference peptide, significant hit TRUE/FALSE
[22] = mean of log2(variant) minus mean of log2(reference)
[23] = mean of log2 of enrichment over R1-R4
[24] = mean of log2 enrichment of variant peptide, n = 5
[25] = mean of log2 enrichment of variant peptide, n = 4

Sequence: DRVALYVAREG [AACS_Y117_I118V]
- Hck mean of log2(enrichment) ([1]; mean of log2(variant) / mean of log2(reference), R1-R4): 0.6801
- Hck enrich. R1 [1, 17]: 1.248
- Hck enrich. R3 [1, 18]: 0.3794
- Hck enrich. R4 [1, 19]: 0.204
- Hck difference (variant - reference) [1, 20]: 0.1112
- Hck hit? [1, 21]: FALSE
- difference [2, 22]: -0.4301
- mean of log2(variant) ([2]; mean of log2 enrichment of variant peptide, R1-R3): -1.56
- difference ([3]; SHP2-C SH2, mean of log2(variant) minus mean of log2(reference)): -0.5364
- mean of log2(variant) ([3]; SHP2-C SH2, mean of log2 enrichment of variant, R1-R3): -0.6877
- hit? ([3]; SHP2-C SH2, variant versus reference significant hit call): FALSE
- c-Abl mean of log2(enrichment) [4, 23]: -0.7858
- c-Abl enrich. R1 [4, 17]: 0.555
- c-Abl enrich. R3 [4, 18]: 0.7635
- c-Abl enrich. R4 [4, 19]: 0.4657
- c-Abl hit? [4, 21]: FALSE
- c-Src mean of log2(enrichment) [5, 23]: -1.464
- c-Src enrich. R1 [5, 17]: 0.3697
- c-Src enrich. R3 [5, 18]: 0.2802
- c-Src enrich. R4 [5, 19]: 0.4218
- c-Src difference (mean log2 variant - mean log2 reference) [5, 20]: -0.2397
- c-Src hit? [5, 21]: FALSE
- difference [6, 22]: -0.06288
- mean of log2(variant) [6, 24]: -0.601
- difference ([7]; Grb2 SH2, mean of log2(variant) minus mean of log2(reference)): -0.1132
- mean of log2(variant) ([7]; Grb2 SH2, mean of log2 enrichment of variant, R1-R3): -0.29
- hit? ([7]; Grb2 SH2, variant versus reference significant hit call): FALSE
- AncSZ mean of log2(enrichment) ([8]; mean of log2 of enrichment over R1-R5): -0.4041
- AncSZ enrich. R1 [8, 17]: 1.153
- AncSZ enrich. R3 [8, 18]: 0.7411
- AncSZ enrich. R4 [8, 19]: 0.5554
- AncSZ enrich. R5 ([8]; pTyr-Var library, enrichment score, replicate 5): 0.4897
- AncSZ difference (mean log2 variant - mean log2 reference) [8, 20]: -0.326
- AncSZ hit? [8, 21]: FALSE
- difference [9, 22]: -0.4526
- mean of log2(variant) [9, 25]: -1.84
- Fer mean of log2(enrichment) [10, 23]: -1.031
- Fer enrich. R1 [10, 17]: 0.6342
- Fer enrich. R3 [10, 18]: 0.3786
- Fer enrich. R4 [10, 19]: 0.4545
- Fer difference (mean log2 variant - mean log2 reference) [10, 20]: 0.05113
- Fer hit? [10, 21]: FALSE
- difference [11, 22]: -0.2676
- mean of log2(variant) [11, 25]: -0.8888
- difference [12, 22]: -0.08555
- mean of log2(variant) [12, 24]: -1.047
- difference [13, 22]: 0.3459
- mean of log2(variant) [13, 25]: -0.6512
- Jak2 mean of log2(enrichment) ([14]; mean of log2 of enrichment over R1-R3): -0.2901
- Jak2 enrich. R1 [14, 17]: 0.73
- Jak2 enrich. R3 [14, 18]: 0.9423
- Jak2 difference (mean log2 variant - mean log2 reference) [14, 20]: -0.3116
- Jak2 hit? [14, 21]: FALSE
- Fyn mean of log2(enrichment) [15, 23]: -1.274
- Fyn enrich. R1 [15, 17]: 0.7923
- Fyn enrich. R3 [15, 18]: 0.2683
- Fyn enrich. R4 [15, 19]: 0.2456
- Fyn difference (mean log2 variant - mean log2 reference) [15, 20]: 0.04124
- Fyn hit? [15, 21]: FALSE
- Fes mean of log2(enrichment) ([16]; mean of log2 of enrichment over R1-R6): -0.04177
- Fes difference (mean log2 variant - mean log2 reference) [16, 20]: -0.2234
